Measured values from US20240174605A1, “ARYLSULFONAMIDES AS OREXIN RECEPTOR AGONISTS” (RESEARCH TRIANGLE INSTITUTE, priority 2021, published 2024).
≈ marks a conversion by molar mass, not a printed value. Entries after “also recorded” stand apart in the source; their conditions may differ. Like-named read-outs stand apart in the source and are kept apart here. One block for each compound: values may come before it.

What was measured:
[1] = biological target: T1, OX1R (Homo sapiens, UniProt O43613); experiment: OX1R calcium mobilization assay; assay type: cell-based; set-up: host or cells: CHO RD-HGA16 cells; conditions: for OX1/OX2: ratio of OX1 to OX2 potency value; for agonist potency at OX1R, in words: calcium mobilization
T1 sequence (O43613 1-425): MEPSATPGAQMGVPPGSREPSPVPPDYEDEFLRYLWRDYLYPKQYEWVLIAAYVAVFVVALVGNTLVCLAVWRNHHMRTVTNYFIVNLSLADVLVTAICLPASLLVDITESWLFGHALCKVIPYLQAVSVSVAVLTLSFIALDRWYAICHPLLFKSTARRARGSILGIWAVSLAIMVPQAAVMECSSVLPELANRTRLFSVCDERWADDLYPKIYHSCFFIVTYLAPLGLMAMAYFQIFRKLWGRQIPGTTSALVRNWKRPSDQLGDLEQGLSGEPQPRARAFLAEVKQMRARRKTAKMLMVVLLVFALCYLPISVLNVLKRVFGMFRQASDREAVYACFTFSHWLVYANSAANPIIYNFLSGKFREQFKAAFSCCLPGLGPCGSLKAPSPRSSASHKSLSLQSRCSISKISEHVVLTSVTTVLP
Experimental: (§1) Activity of the target compounds at the human OX1 and OX2 receptors was determined utilizing CHO RD-HGA16 cells (Molecular Devices) engineered to stably express either the human OX1 or the human OX2 receptor. Cells were maintained in Ham's F12 supplemented with 10% fetal bovine serum, 100 units of penicillin and streptomycin, and 100 μg/mL normocin™. To conduct the assay, cells were plated at 25,000 cells/well and incubated overnight at 37° C., 5% CO2. The next day, cells were washed with assay buffer and loaded with Calcium 5 dye (Molecular Devices). After 45 minutes, cells were pretreated with a 9% DMSO solution for 15 minutes.
(§2) All of the synthesized compounds were characterized for their agonist potencies in the calcium mobilization assays using CHO cells overexpressing either the OX1R or OX2R. Reference is made to German, N. A.; Decker, A. M.; Gilmour, B. P.; Thomas, B. F.; Zhang, Y., Truncated Orexin Peptides: Structure-Activity Relationship Studies.

[2] = biological target: T2, human OX2 receptor (Homo sapiens, UniProt O43614); experiment: OX2R calcium mobilization assay; assay type: cell-based; conditions: for agonist potency at OX2R, in words: calcium mobilization; for Emax: Table 10
T2 construct: host or cells: CHO RD-HGA16 cells
T2 sequence (O43614 1-444): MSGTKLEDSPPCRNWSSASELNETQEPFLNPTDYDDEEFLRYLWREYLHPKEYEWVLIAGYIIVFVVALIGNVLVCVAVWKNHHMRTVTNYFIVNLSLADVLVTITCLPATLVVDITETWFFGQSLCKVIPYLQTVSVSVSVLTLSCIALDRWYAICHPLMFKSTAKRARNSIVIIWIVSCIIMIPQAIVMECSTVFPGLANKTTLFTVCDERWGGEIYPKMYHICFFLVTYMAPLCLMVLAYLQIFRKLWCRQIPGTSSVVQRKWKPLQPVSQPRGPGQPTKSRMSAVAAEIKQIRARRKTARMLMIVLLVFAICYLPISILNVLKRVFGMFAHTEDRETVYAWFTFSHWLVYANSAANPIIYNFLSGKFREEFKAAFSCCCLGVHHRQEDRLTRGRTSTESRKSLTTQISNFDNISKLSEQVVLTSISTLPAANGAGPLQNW
Experimental: as §1, §2

[3] = biological target: both orexin receptors; conditions: literature (Turku et al. 2017); cited from earlier work
[4] = literature (Turku et al. 2017); cited from earlier work
[5] = Aqueous solubility at pH 2; assay type: physicochemical; conditions: aqueous medium at pH 2, pH 2, simulated gastric fluid
Excerpt: (§3) The main structural difference is the pyridyl group connected to the sulfonamide in RTIOXA-47, as compared to the other 3 compounds. The replacement of a phenyl group with a pyridyl reduced the electron density of this aromatic ring.

[6] = Metabolic stability in rat liver microsomes (RLM); assay type: in vitro ADME; conditions: for metabolic stability in rat liver microsomes, in words: RLM; for half-life: rat, rat liver microsomes, read-out: t1/2 (RLM)
Excerpt: as §3

[7] = Half-life in vivo; conditions: read-out: t1/2 (in vivo) (converted)
[8] = biological target: T1, OX1R; conditions: literature; cited from earlier work
[9] = biological target: σ1 (Homo sapiens, UniProt Q99720); experiment: Target selectivity: σ1; assay type: binding
Chain of σ1 (Q99720 whole entry): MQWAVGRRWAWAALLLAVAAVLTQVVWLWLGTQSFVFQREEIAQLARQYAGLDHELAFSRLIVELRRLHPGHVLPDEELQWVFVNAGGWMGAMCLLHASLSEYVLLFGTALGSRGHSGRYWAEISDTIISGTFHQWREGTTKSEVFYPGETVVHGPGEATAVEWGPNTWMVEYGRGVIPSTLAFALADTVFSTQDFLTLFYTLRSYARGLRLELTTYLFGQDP

[10] = system: wild-type mice; conditions: 40 mg/kg i.p., salt form; cited from earlier work
[11] = CHO RD-HGA16 cells expressing human OX1, calcium mobilization, read-out: EC50 (OX1)
[12] = CHO RD-HGA16 cells expressing human OX2, calcium mobilization, read-out: EC50 (OX2)

Compound: CCCNC(=O)c1cccc(-c2ccc(OC)c(S(=O)(=O)Nc3cccc(NCCNC(=O)c4ccccc4N(C)C)c3)c2)c1 [Compound 4]
EC50 [1, 11]: > 10 µM
OX1/OX2 [1]: >20

Compound: CCCCCC(=O)NCCNc1cncc(NS(=O)(=O)c2cc(-c3cccc(C(=O)N(C)Cc4ccncc4)c3)ccc2OC)c1 [Compound 67]
EC50 [2]: 0.0997 µM
EC50 [1]: 0.0333 µM
OX1/OX2 [1]: 0.33

Compound: COc1ccc(-c2cccc(C(=O)N(C)C)c2)cc1S(=O)(=O)Nc1cccc(N2CCN(C(=O)c3cccc(C)c3)CC2)c1 [Compound 18]
EC50 [2, 12]: > 10 µM
EC50 [1, 11]: > 10 µM

Compound: Cc1ccc(Cn2c(=N)n(CC(O)c3ccc(Cl)c(Cl)c3)c3ccccc32)cc1 (stereo not drawn) [Yan7874]
EC50 [3]: > 3.2 µM
cytotoxicity [4]: orexin receptor independent cytotoxicity

Compound: COc1ccc(-c2cccc(C(C)C)c2)cc1S(=O)(=O)Nc1cccc(NCCNC(=O)c2ccccc2N(C)C)c1 [Compound 6]
EC50 [2, 12]: > 10 µM
EC50 [1, 11]: > 10 µM

Compound: COc1ccc(-c2cccc(C(=O)N(C)Cc3ccncc3)c2)cc1-c1nnc(Nc2cccc(NCCNC(=O)c3cccc(C)c3)c2)s1 [Compound 43]
agonist potency at OX2R, in words [2]: inactive
agonist potency at OX1R, in words [1]: inactive

Compound: COc1ccc(-c2cccc(C(=O)N(C)Cc3ccncc3)c2)cc1S(=O)(=O)Nc1cncc(OCCNC(=O)c2cccc(C)c2)c1 [Compound 55]
OX1/OX2 [1]: 1.52

Compound: COC(=O)N1CCC[C@H](NS(C)(=O)=O)[C@@H]1CO[C@H]1CC[C@@H](c2ccccc2)CC1 [TAK-925]
activity at OX1R, in words [8]: little to no activity

Compound: CCCN(CCC)c1cccc(-c2ccc(OC)c(S(=O)(=O)Nc3cccc(NCCNC(=O)c4ccccc4N(C)C)c3)c2)c1 [Compound 9]
EC50 [2, 12]: > 10 µM
EC50 [1, 11]: > 10 µM

Compound: COc1ccc(-c2cccc(C(=O)N(C)C)c2)cc1C(=O)Nc1cccc(NCCNC(=O)c2cccc(C)c2)c1 [Compound 41]
agonist potency at OX1R, in words [1]: inactive

Compound: COc1ccc(-c2cccc(C(C)(C)C)c2)cc1S(=O)(=O)Nc1cccc(NCCNC(=O)c2ccccc2N(C)C)c1 [Compound 10]
EC50 [2, 12]: > 10 µM
EC50 [1, 11]: > 10 µM

Compound: COc1ccc(-c2cccc(C(=O)N(C)c3ccccn3)c2)cc1S(=O)(=O)Nc1cccc(NCCNC(=O)c2cccc(C)c2)c1 [Compound 33]
OX1/OX2 [1]: 4.69

Compound: COc1ccc(-c2cccc(C(=O)N(C)C)c2)cc1S(=O)(=O)Nc1cccc(N2CCN(C(=O)c3ccccc3N(C)C)CC2)c1 [Compound 17]
EC50 [2, 12]: > 10 µM
EC50 [1, 11]: > 10 µM

Compound: CCN(CC)C(=O)c1cccc(-c2ccc(OC)c(S(=O)(=O)Nc3cccc(NCCNC(=O)c4ccccc4N(C)C)c3)c2)c1 [Compound 5]
EC50 [1, 11]: 0.737 µM
OX1/OX2 [1]: 3.32

Compound: CCN(CC)c1cccc(-c2ccc(OC)c(S(=O)(=O)Nc3cccc(NCCNC(=O)c4ccccc4N(C)C)c3)c2)c1 [Compound 8]
EC50 [1, 11]: > 10 µM
OX1/OX2 [1]: >20

Compound: COc1ccc(-c2cccc(C(=O)NCCN(C)C)c2)cc1S(=O)(=O)Nc1cccc(NCCNC(=O)c2cccc(C)c2)c1 [Compound 32]
agonist potency at OX2R, in words [2]: sharp decrease of potency
agonist potency at OX1R, in words [1]: complete loss of potency
OX1/OX2 [1]: >10.0

Compound: COc1ccc(-c2cccc(C(F)(F)F)c2)cc1S(=O)(=O)Nc1cccc(NCCNC(=O)c2ccccc2N(C)C)c1 [Compound 11]
EC50 [2, 12]: > 10 µM
EC50 [1, 11]: > 10 µM

Compound: COc1ccc(-c2cccc(C(=O)N3CCCC3)c2)cc1S(=O)(=O)Nc1cccc(NCCNC(=O)c2ccccc2N(C)C)c1 [Compound 3]
EC50 [2, 12]: 0.252 µM

Compound: COc1ccc(-c2cccc(C(=O)N(C)C)c2)cc1S(=O)(=O)Nc1cccc(NCCNC(=O)c2ccccc2N(C)C)c1 [Compound 1, reference compound]
Emax [2]: 94%
solubility [5]: > 400 µM
metabolic stability in rat liver microsomes, in words [6]: modest metabolic stability
half-life [6]: < 1 min
Ki [9]: 2.5 µM
body temperature [10]: without affecting body temperature
Emax ([1]; Table 10): 55%

Compound: COc1ccc(-c2cccc(C(=O)N(C)Cc3ccncc3)c2)cc1-c1nnc(Nc2cccc(OCCNC(=O)c3cccc(C)c3)c2)s1 [Compound 44]
agonist potency at OX2R, in words [2]: inactive
agonist potency at OX1R, in words [1]: inactive

Compound: COc1ccc(-c2cccc(N(C)C)c2)cc1S(=O)(=O)Nc1cccc(NCCNC(=O)c2ccccc2N(C)C)c1 [Compound 7]
EC50 [2, 12]: 2.13 µM
EC50 [1, 11]: > 10 µM
OX1/OX2 [1]: >20

Continued, in another order:

agonist potency at OX1R, in words [1]: complete loss of the OX1R potency
OX1/OX2 [1]: >20.0
Compound: COc1ccc(-c2cccc(C(=O)NCc3ccccn3)c2)cc1S(=O)(=O)Nc1cccc(NCCNC(=O)c2cccc(C)c2)c1 [Compound 36]

OX1/OX2 [1]: 0.60
Compound: CCCC(=O)NCCNc1cncc(NS(=O)(=O)c2cc(-c3cccc(C(=O)N(C)Cc4ccncc4)c3)ccc2OC)c1 [Compound 65]

Emax [2]: 94%
solubility [5]: > 400 µM
metabolic stability in rat liver microsomes, in words [6]: modest metabolic stability
half-life [6]: 1.8 min
Emax ([1]; Table 10): 95%
Compound: COc1ccc(-c2cccc(C(=O)N(C)Cc3ccncc3)n2)cc1S(=O)(=O)Nc1cccc(NCCNC(=O)c2cccc(C)c2)c1 [Compound 59]

OX1/OX2 [1]: 0.46
Compound: COc1ccc(-c2cccc(C(=O)N(C)Cc3ccncc3)c2)cc1S(=O)(=O)Nc1cncc(NCCNC(=O)C(C)C)c1 [Compound 64]

Emax [2]: 96%
agonist potency at OX2R, in words [2]: high and equal potency
solubility [5]: 313 µM (≈ 208 µg/mL)
metabolic stability in rat liver microsomes, in words [6]: modest metabolic stability
half-life [6]: 1.9 min
Emax ([1]; Table 10): 105%
EC50 ([1]; Table 10, read-out: OX1R EC50): 0.024 µM
agonist potency at OX1R, in words [1]: high and equal potency
OX1/OX2 [1]: 1.0
Compound: COc1ccc(-c2cccc(C(=O)N(C)Cc3ccncc3)c2)cc1S(=O)(=O)Nc1cccc(NCCNC(=O)c2cccc(C)c2)c1 [Compound 38]

OX1/OX2 [1]: 0.48
Compound: CCC(=O)NCCNc1cncc(NS(=O)(=O)c2cc(-c3cccc(C(=O)N(C)Cc4ccncc4)c3)ccc2OC)c1 [Compound 63]

OX1/OX2 [1]: 0.44
Compound: COc1ccc(-c2cccc(C(=O)N(C)Cc3ccncc3)c2)cc1S(=O)(=O)Nc1cncc(NCCNC(=O)C2CCCCC2)c1 [Compound 68]

Emax [2]: 99%
solubility [5]: > 400 µM
half-life [6]: 39.7 min
half-life [7]: 318 min
Emax ([1]; Table 10): 101%
Compound: COc1ccc(-c2cccc(C(=O)N(C)Cc3ccncc3)c2)cc1S(=O)(=O)Nc1cncc(NCCNC(=O)c2cccc(C)c2)c1 [Compound 61]
metabolic stability in rat liver microsomes, in words ([6]; listed as RTIOXA-47): significantly improved half-life; also recorded: significantly improved metabolic stability

OX1/OX2 [1]: 2.78
Compound: COc1ccc(-c2cccc(C(=O)N(C)CCc3ccccn3)c2)cc1S(=O)(=O)Nc1cccc(NCCNC(=O)c2cccc(C)c2)c1 [Compound 39]

OX1/OX2 [1]: 0.72
Compound: COc1ccc(-c2cccc(C(=O)N(C)Cc3ccncc3)c2)cc1S(=O)(=O)Nc1cncc(NCCNC(=O)CCC2CCCCC2)c1 [Compound 70]

OX1/OX2 [1]: 0.33
Compound: CCCCC(=O)NCCNc1cncc(NS(=O)(=O)c2cc(-c3cccc(C(=O)N(C)Cc4ccncc4)c3)ccc2OC)c1 [Compound 66]

OX1/OX2 [1]: 0.57
Compound: COc1ccc(-c2cccc(C(=O)N(C)Cc3ccncc3)c2)cc1S(=O)(=O)Nc1cncc(NCCNC(=O)CC2CCCC2)c1 [Compound 69]
